Experimental data: patent publication US8846746B2, “Pyrazole compound and pharmaceutical use thereof” (Japan Tobacco Inc., priority 2011, dated 2014)

Molecular target: human SGLT1 (Homo sapiens (Human), UniProt P13866)
Assay: SGLT1 inhibitory activity: 14C-AMG uptake into CHO-K1 cell line stably expressing human SGLT1
Assay type: cell-based
Details: 14C-AMG uptake, CHO-K1 cells expressing human SGLT1
Protocol: SGLT1 inhibitory activity of a test compound (IC50 value) was calculated based on an amount of intake into a cell of labeled α-methyl-D-glucopyranoside (^14C-AMG) which is transported by SGLT1.
1) Construction of Human SGLT1 Expression Plasmid
A DNA fragment containing human SGLT1, wherein NheI recognition and cleavage sequence was added upstream of a Kozac consensus sequence of the vector; and a stop codon (TAG) and a SalI recognition and cleavage sequence was added just downstream of a coding region of the human SGLT1, was amplified by PCR using pCMV6-hSGLT1 (OriGene) as a template. The purified DNA fragment was cleaved by restriction enzymes NheI and SalI, and the obtained fragment was ligated into pcDNA3.1 (+) which was cleaved by NheI and XhoI to construct human SGLT1 expression plasmid.
2) Establishment of Stable Cell Lines Expressing Human SGLT1
A human SGLT1 expression plasmid pcDNA-hSGLT1 was transfected into CHO-K1 cells by Lipofectamine-2000 (Invitrogen). The cells were cultured in the presence of G418 (Nakalai tesque) and drug-resistant cells were selected. A cell line having the highest S/B ratio of an amount of ^14C-AMG uptake per cell treated by solvent to an amount of ^14C-AMG uptake per cell treated by phlorizin (SGLT inhibitor) was selected from the drug-resistant cells as a stable cell lines expressing human SGLT1.
3) Evaluation of SGLT1 Inhibitory Activity
The stable cell line expressing human SGLT1 was seeded at 5×10^4 cells/well on BioCoat™ Poly-D-Lysine 96 well plate with Lid (Becton Dickinson and Company) and cultured at 37° C. under 5% CO2 overnight. The medium was replaced with 100 μL/well of a Na (−) buffer (140 mM choline chloride, 2 mM KCl, 1 mM MgCl2, 1 mM CaCl2, 10 mM HEPES, 5 mM Tris, pH7.4) followed by incubation for 20 minutes at 37° C. under 5% CO2. After removing the Na (−) buffer, a test compound solution which was prepared from Na (+) buffer (140 mM NaCl, 2 mM KCl, 1 mM MgCl2, 1 mM CaCl2, 10 mM HEPES, 5 mM Tris, pH7.4) containing BSA was added thereto at 40 μL/well. In addition, Na (+) buffer containing 8 kBq of ^14C-AMG and 2 mM AMG was added thereto at 40 μL/well, and was mixed well. Na (−) buffer containing BSA was added to a blank well at 40 μL/well and additionally adding a Na (+) buffer containing 8 kBq of ^14C-AMG and 2 mM AMG, and was mixed well. Cells were incubated for 1 hour at 37° C. under 5% CO2. After the reaction, the cells were washed twice with 100 μL/well of iced wash buffer (100 mM AMG, 140 mM choline chloride, 2 mM KCl, 1 mM MgCl2, 1 mM CaCl2, 10 mM HEPES, 5 mM Tris, pH7.4), then lysed in 50 μL/well of a 0.2N aqueous solution of NaOH. The cell lysate was transferred to OptiPlate96 (Perkin-Elmer) and 100 μL/well of MicroScint-40 (Perkin-Elmer) was dispensed. The radioactivity was counted by TOPCOUNT NXT (Perkin-Elmer).
A data was obtained by deducting the average value (CPM) of blank wells from the average value (CPM) of each treated well. The inhibition ratio (%) was calculated by the following formula: inhibition rate (%)=[(A−B)/A]×100, where A is a data of the solvent control, and B is a data of a test compound.

Sequence of human SGLT1 (P13866 whole entry): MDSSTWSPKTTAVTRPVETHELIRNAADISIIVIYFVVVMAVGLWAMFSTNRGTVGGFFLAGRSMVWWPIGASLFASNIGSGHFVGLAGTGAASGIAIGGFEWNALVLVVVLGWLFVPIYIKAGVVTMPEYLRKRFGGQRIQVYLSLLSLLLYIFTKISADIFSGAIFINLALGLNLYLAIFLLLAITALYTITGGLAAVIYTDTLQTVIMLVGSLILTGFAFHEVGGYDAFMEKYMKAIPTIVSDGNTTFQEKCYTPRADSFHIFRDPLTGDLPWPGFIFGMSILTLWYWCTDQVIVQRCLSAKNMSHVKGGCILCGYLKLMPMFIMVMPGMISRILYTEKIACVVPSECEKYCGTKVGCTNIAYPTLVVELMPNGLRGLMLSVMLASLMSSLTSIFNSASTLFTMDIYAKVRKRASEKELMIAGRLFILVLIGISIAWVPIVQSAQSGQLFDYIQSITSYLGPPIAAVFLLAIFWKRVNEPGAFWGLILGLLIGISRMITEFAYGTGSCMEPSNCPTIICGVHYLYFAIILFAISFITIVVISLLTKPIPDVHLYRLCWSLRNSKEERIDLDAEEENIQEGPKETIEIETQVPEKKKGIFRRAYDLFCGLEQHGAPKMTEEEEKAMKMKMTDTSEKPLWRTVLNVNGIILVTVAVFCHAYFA

| SMILES | IC50 |
| --- | --- |
| O=C1C[C@@H](C(=O)Nc2cc(-c3cccc(OCC(F)(F)F)c3)n(-c3ccccc3Cl)n2)CN1 [Example 214] | 2.3 nM |
| O=C1C[C@@H](C(=O)Nc2cc(-c3cccc(OCC(F)(F)F)c3)n(-c3ccccc3)n2)CN1 [Example 148] | 10 nM |
| O=C1C[C@H](C(=O)Nc2cc(-c3cccc(C4CC4)c3)n(-c3ccccc3)n2)CN1 [Example 93] | 31 nM |
| O=C1C[C@@H](C(=O)Nc2cc(-c3cccc(C(F)(F)F)c3)n(-c3ccccc3)n2)CN1 [Example 27] | 23 nM |
| O=C1C[C@@H](C(=O)Nc2cc(C3CCCCC3)n(-c3ccccc3)n2)CN1 [Example 40] | 650 nM |
| CCc1cccc(-c2cc(NC(=O)[C@H]3CNC(=O)C3)nn2-c2ccccc2)c1 [Example 43] | 11 nM |
| Cc1ccc(-n2nc(NC(=O)[C@H]3CNC(=O)[C@@H]3C)cc2-c2cccc(OCC(F)(F)F)c2)cc1 [Example 217] | 6.2 nM |
| O=C1C[C@@H](C(=O)Nc2cc(C3CCCC3)n(-c3ccccc3)n2)CN1 [Example 63] | 2400 nM |

Same assay, conditions: 14C-AMG uptake, CHO-K1 cells stably expressing human SGLT1

| SMILES | IC50 |
| --- | --- |
| C[C@@H](OCc1cccc(-c2cc(NC(=O)[C@H]3CNC(=O)C3)nn2-c2ccccc2)c1)C(F)(F)F [Example 561] | 5.5 nM |
| O=C1NC[C@@H](C(=O)Nc2cc(-c3cccc(OC(F)(F)F)c3)n(-c3ccccc3)n2)O1 [Example 263] | 370 nM |
| C[C@@H](OCc1cc(F)cc(-c2cc(NC(=O)C3CCC(=O)NC3)nn2-c2ccc(Cl)cc2)c1)C(F)(F)F (stereo partly shown) [Example 572] | 5.1 nM |
| CCCc1cccc(-c2cc(NC(=O)[C@@H]3CNC(=O)N3CCOC)nn2-c2ccccc2)c1 [Example 345] | 7.9 nM |
| COCCOc1cccc(-n2nc(NC(=O)[C@@H]3CNC(=O)C3)cc2-c2cccc(COCC(F)(F)F)c2)c1 [Example 450] | 8.1 nM |
| O=C1C[C@@H](C(=O)Nc2cc(-c3cccc(COCC(F)(F)F)c3)n(-c3ccccc3)n2)CN1 [Example 280] | 9.8 nM |
| CCOc1cc(F)cc(-n2nc(NC(=O)[C@@H]3CNC(=O)C3)cc2-c2cccc(CO[C@H](C)C(F)(F)F)c2)c1 [Example 534] | 1.8 nM |
| C[C@@H](OCc1cccc(-c2cc(NC(=O)[C@@H]3CNC(=O)C3)nn2-c2ccccc2Cl)c1)C(F)(F)F [Example 475] | 3.1 nM |
| C[C@@H](OCc1cccc(-c2cc(NC(=O)[C@H]3CNC(=O)O3)nn2-c2ccccc2)c1)C(F)(F)F [Example 367] | 11.5 nM |
| CCCc1cccc(-c2cc(NC(=O)[C@@H]3CNC(=O)C3)nn2-c2cccc(OCCOC)c2)c1 [Example 406] | 7.85 nM |
| CCCc1cccc(-c2cc(NC(=O)[C@@H]3CNC(=O)C3)nn2-c2cc(C)cc(C)c2)c1 [Example 322] | 4.7 nM |
| CCCCOc1cccc(-c2cc(NC(=O)[C@@H]3CNC(=O)C3)nn2-c2ccccc2)c1 [Example 316] | 39 nM |
| CC(C)CSc1cccc(-c2cc(NC(=O)[C@@H]3CNC(=O)C3)nn2-c2ccccc2)c1 [Example 546] | 5.7 nM |

Same assay, conditions: CHO-K1, at 0.1 uM

| SMILES | inhibition at 0.1 µM |
| --- | --- |
| O=C1C[C@H](C(=O)Nc2cc(-c3cccc(S(=O)(=O)CC(F)(F)F)c3)n(-c3ccccc3)n2)CN1 [Example 550] | 29% |
| O=C1C[C@H](C(=O)Nc2cc(-c3cccc(OC(F)(F)F)c3)n(-c3cccc(O)c3)n2)CN1 [Example 439] | 45% |
| CC(C)CS(=O)(=O)c1cccc(-c2cc(NC(=O)[C@@H]3CNC(=O)C3)nn2-c2ccccc2)c1 [Example 553] | 31% |
| O=C1C[C@H](C(=O)Nc2cc(-c3cccc(COCC(F)(F)F)c3)n(-c3cc(Cl)ccc3F)n2)CN1 [Example 503] | -17% |
| O=C1C[C@H](C(=O)Nc2cc(-c3cccc(CO[C@@H]4CCOC4)c3)n(-c3ccccc3)n2)CN1 [Example 536] | 15% |
| O=C1C[C@H](C(=O)Nc2cc(-c3cccc(CS(=O)(=O)CC(F)(F)F)c3)n(-c3ccccc3)n2)CN1 [Example 552] | 8% |

Same assay, conditions: at 0.1 uM

| SMILES | human SGLT1 % Inhibition |
| --- | --- |
| CCCc1cccc(-c2cc(NC(=O)C3CNC(=O)C(C)C3)nn2-c2ccccc2)c1 (racemic) [Example 293] | 27% |
